Common to all, as to format: cell-based, human
One assay relates to REH cells. As to the kind of experiment: trypan blue exclusion, REH. The following applies: 25 μg/ml taurolidine, versus MM6, K562, Jurkat. As to the method: FIGS. 8A and 8B depict cell viability and growth rates for REH cell line following taurolidine treatment, in terms of % trypan blue negative cells and % cell number, respectively. Cells were treated with various concentrations of taurolidine for 4 hours in AIM-V+0.01% BCS. After aliquots were collected for LDH assay, the remainder of the culture was rinsed in HBSS and resuspended in RPMI+10% BCS without taurolidine. Counts of trypan blue-negative cells (FIG. 8A), and total cell number (FIG. 8B), were recorded daily thereafter (with the measurement at Day 1 being made immediately after the 4 hour taurolidine treatment). […] Doubling times were determined under each condition, and expressed as a percentage of the rate of doubling of untreated cells. […]
In these experiments, integrity of cell membranes following taurolidine treatment was assessed by exclusion of trypan blue and by measuring the release of LDH in MM6, K-562, HL-60, and REH cells. […] A parallel aliquot of cells was lysed by three cycles of freeze/thaw and the quantity of LDH released was taken to be 100%. […]
HL-60 cells treated with 50 μl taurolidine. In these samples, LDH present in the culture medium was 8.3±2.3% of that released by completely lysed cells, compared with 2.3±0.8% measured in control cultures. […]

In assay [1] the test system is ECV304 (endothelial cells). The experiment in a line: trypan blue exclusion, ECV304. The following applies: ECV304, after taurolidine treatment. As to the method:
FIGS. 10A and 10B depict cell viability and growth rates for ECV304 cell line following taurolidine treatment, in terms of % trypan blue negative cells and % cell number, respectively. Cells were treated with various concentrations of taurolidine for 4 hours in AIM-V+0.01% BCS. After aliquots were collected for LDH assay, the remainder of the culture was rinsed in HBSS and resuspended in RPMI+10% BCS without taurolidine. Counts of trypan blue-negative cells (FIG. 10A), and total cell number (FIG. 10B), were recorded daily thereafter (with the measurement at Day 1 being made immediately after the 4 hour taurolidine treatment). Conditions were: no treatment (open circles); 25 μg/ml taurolidine (closed circles); 50 μg/ml taurolidine (open squares); 100 μg/ml taurolidine (closed squares); and vehicle alone (closed triangles). Doubling times were determined under each condition, and expressed as a percentage of the rate of doubling of untreated cells. These values are located to the right of the growth curves in (FIG. 10B). […]
HL-60 cells treated with 50 μl taurolidine. In these samples, LDH present in the culture medium was 8.3±2.3% of that released by completely lysed cells, compared with 2.3±0.8% measured in control cultures. […] After 4 hour treatment, cells were rinsed and returned to growth medium and monitored for viability and growth over the following 3 days. […]

For another assay, the system named is TNFα. As to the kind of experiment: LPS-induced TNFα expression/secretion by MM6 cells, ELISA. Particulars: 4 h. As to the method: FIG. 3A and FIG. 3B are graphs depicting taurolidine inhibition of LPS-induced alpha […] (TNFα) expression by monocytic cells as determined by assay procedures. FIG. 3A represents MM6 cells; FIG. 3B represents PBMC. The cells were induced with LPS (hatched bars: 100 ng/ml LPS in RPMI+10% BCS; solid bars: 10 ng/ml in AIM-V+0.01% BCS) in the presence of varying concentrations of taurolidine. After four hours, cell supernatants were collected for TNFα ELISA. Data are expressed as percent of TNFα levels measured in cell cultures treated with LPS alone (no taurolidine or vehicle). Experiments were performed with duplicate samples and were repeated at least three times. Values shown in FIG. 3A are from a representative experiment. Values shown in FIG. 3B are mean±SEM of three experiments.
All cells were cultured in a 5% CO2 atmosphere at 37° C. MM6 cells were grown in RPMI supplemented with 10% BCS, 2 mM L-glutamine, and 50 μg/ml gentamicin (RPMI+10% BCS). In some experiments, MM6 cells were rinsed once with HBSS without Ca^++ or Mg^++ and once with AIM-V before finally being resuspended in AIM-V supplemented with 0.01% BCS (AIM-V+0.01% BCS). […] AIM-V was supplemented with a low amount of BCS (0.01%) in order to provide a source of LPS-binding protein, which enhances the response of monocytic cells to LPS. Ulevitch, R. J. and Tobias, P. S., "Recognition of endotoxin by cells leading to transmembrne signaling," Curr Opin Immunol 6:125 (1994). HL-60, REH, and Jurkat were cultured in RPMI supplemented with 10% heat inactivated fetal bovine serum (FBS), 2 mM L-glutamine, and 50 μg/ml gentamicin. ECV304 were cultured in M199 supplemented with 10% FBS, mM L-glutamine, and 50 μg/ml gentamicin. GM5387 was cultured in MEM supplemented with 20% FBS, 2 mM L-glutamine, and 50 μg/ml gentamicin.
For induction of TF or TNFα expression, MM6 cells or PBMC were cultured either in RPMI supplemented with 10% BCS or in AIM-V+0.01% BCS, and stimulated by adding LPS to final concentrations of 10 to 100 ng/ml. […]
Background: An ELISA detects its analyte on a solid surface through an enzyme-linked reagent.

With `O=S1(=O)CCN(CN2CCS(=O)(=O)NC2)CN1` [taurolidine, 4,4'-methylenebis(perhydro-1,2,4-thiadiazin 1,1-dioxide)], the “trypan blue staining after treatment, sensitivity” value with REH cells is given as “more sensitive”. Further, the “trypan blue staining during 4 day growth” value in assay [1] was “did not demonstrate a significant increase in trypan blue staining”; in assay [1] (listed as Taurolidine), “cells remained trypan blue negative”. Further, the “effect on LPS-induced TNFα secretion” value in the assay with TNFα (MM6, intermediate concentrations, particularly 25 μg/ml taurolidine) is “markedly stimulating TNFα secretion”. Besides, the “inhibition of LPS-induced TNFα secretion” value with TNFα (MM6, taurolidine 75 μg/ml) is recorded as “maximal inhibition”.

The record behind these values is patent US6303596A, “Use of taurolidine for treatment of leukemias” (priority 2000, dated 2001).
